Like-named read-outs stand apart in the source and are kept apart here.
Tests used:
[1] = IS-RPLC retention on silica-based C18 column, logkw by linear solvent strength model; assay type: physicochemical
Method: (§1) The retention behavior of the 42 basic compounds (Table 1) were investigated at different ratios of methanol (φ = 0.7–0.1, the interval was 0.1 or 0.05 based on the retention of the investigated solutes). The logk values were plotted versus φ for each solute at pH 7.0, pH 8.0, pH 9.0, and pH 10.0. […] The logD values of the model compounds and verification compounds calculated using Equation (S3) based on the logP and pH values are also listed in Table 1.
The column temperature was set at 30 °C. Methanol and 20 mmol/L ammonium phosphate buffer (pH = 7.0, 8.0, 9.0, 10.0) was used as the mobile phase to perform isocratic elution. The injection volume was 10 µL and the detection wavelength for each eluted compound was set at its optimum absorption wavelength.
(§2) At each pH, the retention time (tR) of every analyte was determined for at least four different volume fractions (φ) of methanol. All the tR values of the solutes were obtained by averaging the results of at least three independent injections. The tR value was corrected using dual-point retention time correction (DP-RTC). For a detailed description of the process, refer to our previous work. For the different hydrophobicities of the studied compounds, benzene, toluene, and benzyl alcohol were used as anchor compounds in the DP-RTC method. The dead time t0 was determined using uracil. For each solute, the logarithm of k was plotted against φ, and logkw was obtained using the Equation (S1). The logD values of the model compounds were calculated using Equation (S3), and the logD–logkw models were established with Equation (S4). The statistical analysis for the regression model was accomplished using Origin 9.4. […]
(§3) Where, k is the capacity factor, φ is the volume fraction of organic modifier in the mobile phase, and S is the constant obtained by linear regression in the equations. […]
The Eqs. (S1) and (S2) are the basis for the determination of logP by revered- phase liquid chromatography (RPLC) method. For dissociative solutes, it has been confirmed by many studies that the logD calibrated from logP has a better linear correlation with logkw than logP. […]

[2] = Description: as §1, §2, §3
and logkw, which is usually called Collander equation [25 ]. lo g lo g wPm k n= + (S2)
Where, m and n are constants obtained by linear regression.
The Eqs. (S1) and (S2) are the basis for the determination of logP by revered- phase liquid chromatography (RPLC) method. For dissociative solutes, it has been confirmed by many studies that the logD calibrated from logP has a better linear correlation with logkw than logP.
For basic compounds, the logD value can be calibrated from Eq. (S3), and the Collander equation can be rewritten into Eq. (S4). log log( )D − −+ −+= + ++P […]
lo g ' lo g 'Dm k n= +w (S4)
Where, pKa1, pKa2 , … p Kan are the dissociation constants of basic compounds of corresponding acids in the mobile phase, pH is the pH value of mobile phase, m′ and n′ are fitting parameters. Han et al. pointed out that although mobile phase pH and pKa of solutes will change along with the varied organic modifier fraction, the difference between a couple of relevant pH and pKa is a constant. Therefore, the used pH and pKa in this paper were both the values obtained at 100% aqueous phase. […]

[3] = design: method as in UFZ-LSER database; settings: hydrogen bonding parameter B; ref UFZ-LSER database; cited from earlier work
[4] = ref database module of ACD/Labs software; cited from earlier work
[5] = n-octanol/water; ref database module of ACD/Labs software; cited from earlier work
[6] = pH 8.0, calculated with literature logP, pKa and pH, Equation (S3)
[7] = pH 7.0, methanol/20 mmol/L ammonium phosphate buffer, Welch Xtimate C18, 30 °C, 100% aqueous extrapolation
[8] = pH 8.0, methanol/20 mmol/L ammonium phosphate buffer, Welch Xtimate C18, 30 °C, 100% aqueous extrapolation
[9] = pH 9.0, methanol/20 mmol/L ammonium phosphate buffer, Welch Xtimate C18, 30 °C, 100% aqueous extrapolation
[10] = pH 10.0, methanol/20 mmol/L ammonium phosphate buffer, Welch Xtimate C18, 30 °C, 100% aqueous extrapolation
[11] = pH 7.0, calculated with literature logP, pKa and pH, Equation (S3)
[12] = pH 9.0, calculated with literature logP, pKa and pH, Equation (S3)
[13] = pH 10.0, calculated with literature logP, pKa and pH, Equation (S3)

Compound | logkw-pH 7.0 ([1]; pH 7) | logkw-pH 8.0 ([1]; pH 8) | logkw-pH 9.0 ([1]; pH 9) | logkw-pH 10.0 ([1]; pH 10) | logDpH 7.0 ([2]; pH 7) | logDpH 8.0 [2, 6] | logDpH 9.0 ([2]; pH 9) | logDpH 10.0 ([2]; pH 10) | B [3] | pKa1 [4] | logP [5] | logkw-pH 7.0 [1, 7] | logkw-pH 8.0 [1, 8] | logkw-pH 9.0 [1, 9] | logkw-pH 10.0 [1, 10] | logDpH 7.0 [2, 11] | logDpH 9.0 [2, 12] | logDpH 10.0 [2, 13] | logDpH 8.0 ([2]; pH 8)
COc1ccc(N)cc1 [4-Methoxyaniline] | 1.05 | 0.99 | 1.07 | 1.11 | 0.79 | 0.80 | 0.80 | 0.80 | 1.05 | 5.36 | 0.80 | – | – | – | – | – | – | – | –
Cc1ccnc(C)c1 [2,4-Dimethylpyridine] | – | – | – | – | – | 1.63 | – | – | 0.63 | 6.58 | 1.65 | 1.76 | 1.85 | 1.88 | 1.96 | 1.51 | 1.65 | 1.65 | –
CC(C)c1ccc(N)cc1 [4-Isopropylaniline] | – | – | – | – | – | 2.23 | – | – | 0.92 | 4.85 | 2.23 | 2.42 | 2.57 | 2.59 | 2.65 | 2.23 | 2.23 | 2.23 | –
NCc1ccccc1 [Benzylamine] | – | – | – | – | – | – | – | – | – | 9.35 | – | 0.36 | 0.49 | 1.05 | 1.42 | – | – | – | –
Cc1cccc(C)n1 [2,6-Dimethylpyridine] | – | – | – | – | 1.52 | – | 1.68 | 1.68 | 0.61 | 6.65 | 1.68 | 1.68 | 1.76 | 1.78 | 1.81 | – | – | – | 1.66
Cc1ccnc(N)c1 [2-Amino-4-methylpyridine] | – | – | – | – | – | 0.80 | – | – | 0.95 | 7.38 | 0.89 | 1.00 | 1.16 | 1.28 | 1.32 | 0.36 | 0.88 | 0.89 | –
Cc1cc(C)nc(C)c1 [2,4,6-Trimethylpyridine] | – | – | – | – | 1.44 | – | 2.00 | – | 0.63 | – | 2.01 | 2.06 | 2.23 | 2.30 | 2.34 | – | – | 2.01 | 1.91
CCOc1ccc(N)cc1 [4-Ethoxyaniline] | 1.45 | 1.49 | 1.50 | 1.60 | 1.23 | – | 1.24 | 1.24 | 0.95 | – | 1.24 | – | – | – | – | – | – | – | 1.24
